Experimental data as given in patent US20220401408A1, “COMPOSITIONS AND METHODS FOR RESCUING RETINAL AND CHOROIDAL STRUCTURE AND FUNCTION” (AUCKLAND UNISERVICES LIMITED, priority 2019, published 2022).

Columns and labels:
light damaged rats = assay: Optical coherence tomography (OCT) of retinal layers and choroid in light damage model; type: in vivo, Sprague Dawley (SD) rats
Description: (§1) Retina Light Damage Model of Dry Age-Related Macular Degeneration—The intense light damage model was prepared and carried out as described in previous studies. Mat Nor N, Guo C X, Rupenthal ID, Chen Y S, Green C R, Acosta M L. Sustained Connexin43 Mimetic Peptide Release From Loaded Nanoparticles Reduces Retinal and Choroidal Photodamage. Invest Ophthalmol Vis Sci. 2018; 59:3682-93; Guo C X, Mat Nor M N, Danesh-Meyer H V, Vessey K A, Fletcher E L, O'Carroll S J, et al. Connexin43 Mimetic Peptide Improves Retinal Function and Reduces Inflammation in a Light-Damaged Albino Rat Model. Invest Ophthalmol Vis Sci. 2016; 57:3961-73; Guo C X, Tran H, Green C R, Danesh-Meyer H V, Acosta M L. Gap junction proteins in the light-damaged albino rat. Mol Vis. 2014; 20:670-82; Noell W K, Walker V S, Kang B S, Berman S. Retinal damage by light in rats. Invest Ophthalmol. 1966; 5:450-73. The light damage rat model was selected as it allows direct comparison with this and other drugs. Kim Y, Griffin J M, Nor M N M, Zhang J, Freestone P S, Danesh-Meyer H V, et al. Tonabersat Prevents Inflammatory Damage in the Central Nervous System by Blocking Connexin43 Hemichannels. Neurotherapeutics. 2017; 14:1148-65; Mat Nor N, Guo C X, Rupenthal ID, Chen Y S, Green C R, Acosta M L, supra; Guo C X, Mat Nor M N, Danesh-Meyer H V, Vessey K A, Fletcher E L, O'Carroll S J, et al., supra. […] All experimental procedures were approved by the University of Auckland Animal Ethics Committee, approval No. 001462 and comply with the Association for Research in Vision and Ophthalmology (ARVO) statement for the use of animals in eye research. Six to eight-week old albino Sprague Dawley (SD) rats (200-250 g; male or female) were used. Adult SD rats were exposed to continuous bright light for 24 hours, consistently starting at 9:00 am to minimize possible time-of-day variability. Light exposure was to two animals at a time to prevent rats from taking cover using each other as a shield. The LD protocol and intervention was repeated until the number of individuals for each dose group was obtained (n=7 per group). The light luminance was 2700 lux, generated using fluorescent lamps (Philips Master TLD 18W/965; Koninklijke Philips Electronics N.V., China) directly above the animal cages. The lamps were cool and emitted broadband light, from 380 to 760 nm wavelength, with the average intensity at the top of the cage being 120 W/m2. Animals were free to move within the cage with access to food and water ad libidum. Baseline electroretinography (ERG) readings and optical coherence tomography (OCT) images were collected prior to the light damage. After light exposure, animals were returned to normal light-dark cycle conditions (12 hours light, 174 lux and 12 hours darkness, <62 lux) for 24 hours, 1 week or 2 weeks (and for one group 3 months).
(§2) Tonabersat treatment of light damaged rats—LD rats were randomly assigned to low, middle or high dose of tonabersat (n=7 per group). The mixture of tonabersat in peanut butter was prepared fresh for each experiment. Three oral tonabersat doses were tested (n=7 per group) with follow up to 2 weeks post-injury, and the highest dose group then split with three animals taken for histological analysis, and four animals followed to 3 months post-injury. There was a ten-animal vehicle only control group. The group of rats that were kept for 3 months were maintained in separate cages for drug or vehicle-treated animals, but were kept under the same light conditions. Tonabersat was fed to animals in peanut butter at 0.26 mg/kg (on average 0.08 mg delivered, estimated circulating concentration 10 μM), 0.8 mg/kg (average of 0.24 mg delivered; 30 μM circulating) or 2.4 mg/kg (on average 0.72 mg delivered; 90 μM circulating) following consideration of previous unsuccessful human trial dosing levels. Silberstein S D. Tonabersat, a novel gap-junction modulator for the prevention of migraine. Cephalalgia. […]

[1] = system: GFAP, Iba-1, Connexin43 (retinal inflammation markers); assay: Immunohistochemical labelling of GFAP, Iba-1 and Connexin43 in retina of light damaged rats; type: in vivo, Sprague Dawley (SD) rats
Description: as §1, §2

[2] = 2.4 mg/kg oral, 3 months post treatment, p<0.001
[3] = all three oral doses, 24 hours, 1 week and 2 weeks post light damage
[4] = all tonabersat treated groups, p<0.001

Compound: CC(=O)c1ccc2c(c1)[C@H](NC(=O)c1ccc(F)c(Cl)c1)[C@H](O)C(C)(C)O2 [tonabersat, N-[(3S,4S)-6-acetyl-3-hydroxy-2,2-dimethyl-3,4-dihydrochromen-4-yl]-3-chloro-4-fluorobenzamide]
- ONL thickness compared to same animals prior to light damage (light damaged rats; 2.4 mg/kg oral, 3 months): no difference
- choroidal thickness compared to same rats prior to light damage (light damaged rats; 2.4 mg/kg oral, 3 months): no difference
- choroidal thickness compared to vehicle treatment group (light damaged rats; [2]): significantly preserved
- retinal thickness compared to vehicle treatment group (light damaged rats; [2]): significantly preserved
- INL thickness compared to same animals prior to light damage (light damaged rats; 2.4 mg/kg oral, 3 months, p<0.05): slightly reduced thickness
- choroidal thickness (OCT) (light damaged rats; [3]): significantly preserved
- retinal thickness (OCT) (light damaged rats; [3]): significantly preserved
- thinning in the ONL or choroid (light damaged rats; lowest and middle dose (0.26, 0.8 mg/kg), up to 2 weeks post light damage): some thinning at the lowest and middle dose, it was not significant
- Iba-1 reactivity ([1]; 0.26 mg/kg): slightly higher level
- GFAP labelling ([1]; 0.26 mg/kg, significantly less than vehicle): slight increase
- GFAP immunoreactivity in the retina compared to vehicle ([1]; 0.8 mg/kg): did not increase
- GFAP immunoreactivity in the retina compared to vehicle ([1]; 2.4 mg/kg): did not increase
- Connexin43 immunoreactivity in the retina compared to vehicle ([1]; all three tonabersat doses): less
- Connexin43 level, image quantification vs vehicle controls [1, 4]: significantly less
- GFAP level, image quantification vs vehicle controls [1, 4]: significantly less
- Iba-1 level, image quantification vs vehicle controls [1, 4]: significantly less
- Iba-1 immunolabelled cells in inner plexiform layer compared to vehicle ([1]; drug treated groups (all three doses)): less active
